Molecules are shown by their SMILES. Several values for one entry are separate records, joined by “and”; a condition that tells them apart may be missing. Identical values can stand only once.

For one test, the system named is mice. As to conditions: previously determined; cited from earlier work.
For another test, the target named is hDOR (Homo sapiens, UniProt P41143). The test is described as follows: CAMYEL BRET antagonism assay at hDOR (inhibition of DPDPE). It counts as cell-based. As to conditions: for Antagonist activity at the hDOR (raw signal): individual replicates, Supplementary Figure 9A source data. On the technique in general: In BRET a luciferase serves as donor, and the signal depends on an acceptor being close.

A further test has as its target T1, mDOR (Mus musculus, UniProt P32300).
T1 construct: expressed in transfected cells
The test is described as follows: CAMYEL BRET antagonism assay at mDOR (inhibition of DPDPE). In kind it is cell-based. As to conditions: for Antagonist activity at the mDOR (raw signal): individual replicates, Supplementary Figure 9B source data.

A further test deals with hKOR (Homo sapiens, UniProt P41145). As to the kind of experiment: CAMYEL BRET antagonism assay at hKOR (inhibition of U-50,488). In kind it is cell-based. Conditions: for raw BRET response, antagonist activity at the hKOR (Supplementary Figure 10A): vs EC80 U50,488, replicate raw values.
The target in a further test is T2, rKOR (Rattus norvegicus, UniProt P34975).
T2 construct: expressed in transfected cells
The test is described as follows: CAMYEL BRET antagonism assay at rKOR (inhibition of U-50,488). Conditions: inhibition of reference agonist U50,488 (EC80). In kind it is cell-based.

The next test relates to WT C57 and MOR KO mice. As to the kind of experiment: Tail-flick in wild-type and MOR KO mice. It counts as in vivo, mouse. As to conditions: individual animals. The method, then:
CD1 mice (n = 10), at peak analgesic time point. […] Dose–response curves of 22 (s.c.), in the tail-flick assay was evaluated 15 min post drug administration in WT, C57 mice (n = 8) and MOR KO mice (n = 5). Each point represents mean ± SEM.
To confirm that the low-efficacy analgesia is driven by MOR, and no other targets or mechanisms (e.g., other opioid receptors or non-opioid off-targets), we performed the mouse tail-flick assay in wild-type (WT), and MOR knockout (MOR KO) mice with the same genetic background (Fig. 9e).
For analgesic testing in KO animals, wild-type, male C57BL/6 mice (22–33 g), 10–12 weeks were purchased from the Jackson Lab (Bar Harbor, ME). These mice were kept at a constant temperature of 22 ± 2 °C, and relative humidity was maintained at 40–50%. Exon-1/Exon-11 MOR-1 KO mice on a C57 background were bred in the Pintar laboratory at Rutgers University. All mice were maintained on a 12-hour light/dark cycle with food and water available ad libitum, and housed in groups of five until testing. All testing was done in the light cycle.
Analgesia was tested in wild-type and MOR KO animals by the radiant heat tail-flick technique using an IITC Model 33 Tail Flick Analgesia Meter as previously described. The intensity was set to achieve a baseline between 2 and 3 s. Tail-flick antinociception was assessed as an increase in baseline latency, with a maximal 10 s latency to minimize damage to the tail. Data were analyzed as percent maximal effect, % MPE, which was calculated according to the formula: % MPE [(observed latency − baseline latency)/(maximal latency − baseline latency)] × 100. Compounds were administered s.c. as indicated in the figures, and analgesia was assessed at the peak effect (15 min). Mice were tested for analgesia with cumulative subcutaneous doses of the drug until the mouse can withstand the maximal latency. Once the mouse reached the maximal latency, the mouse was no longer given higher doses. In vivo experiments were evaluated using GraphPad Prism 8, San Diego, CA as described above. […]
dilution series was prepared for the desired doses of 0.1, 0.3, 1, 3, and 10 mg/kg (concentrations 0.01 mg/mL, 0.03 mg/mL, 0.1 mg/mL, 0.3 mg/mL, and 1 mg/mL respectively). Solutions were filtered through a PTFE 0.45μm syringe filter and administered s.c. at a max volume of 300μL.
Tail Flick (Dose – response)
Tail flick antinociception was determined using the radiant heat tail flick technique using an Ugo Basile model 37360 instrument as previously described.21,22 The intensity was set to achieve a baseline between 2 and 3 s. Baseline latencies were determined before experimental treatments for all mice. Tail flick antinociception was assessed as an increase in baseline latency, with a maximal 15 s latency to minimize damage to the tail. Data were analyzed as percent maximal effect, %MPE, and was calculated according to the formula: % MPE = [(observed latency – baseline latency)/(maximal latency – baseline latency)] × 100.
Compounds were injected subcutaneously (s.c.) and antinociception was assessed at the peak effect. Mice were tested for analgesia with cumulative subcutaneous doses of the drug until the mouse can withstand the maximal latency. Once the mouse reached the maximal latency, the mouse was no longer given higher doses. The analgesia experiments were performed by blinding the experimenter to the identity of 7OH versus 11-F-7OH. In vivo experiments were evaluated using GraphPad Prism 8, San Diego, CA as described […]
Analgesia was tested in wild-type and MOR KO animals by the radiant heat tail-flick technique using an IITC Model 33 Tail Flick Analgesia Meter as previously described.23 The intensity was set to achieve a baseline between 2 and 3 s. Tail flick antinociception was assessed as an increase in baseline latency, with a maximal 10 s latency to minimize damage to the tail. Data were analyzed as percent maximal effect, %MPE, which was calculated according to the formula: % MPE [(observed latency − baseline […]

The mark [1] stands for this setting: Log[drug] (M) -5, against EC80 DPDPE.
Setting [2] is: Log[drug] (M) -6, against EC80 DPDPE.
The mark [3] stands for this setting: Log[drug] (M) -7, against EC80 DPDPE.
[4] abbreviates: Log[drug] (M) -8, against EC80 DPDPE.
[5] abbreviates: Log[drug] (M) -9, against EC80 DPDPE.
Where [6] appears, read: Log[drug] (M) -10, against EC80 DPDPE.
Where [7] appears, read: Log[drug] (M) -11, against EC80 DPDPE.
[8] abbreviates: inhibition of reference agonist DPDPE (EC80).

T1 sequence (P32300 whole entry): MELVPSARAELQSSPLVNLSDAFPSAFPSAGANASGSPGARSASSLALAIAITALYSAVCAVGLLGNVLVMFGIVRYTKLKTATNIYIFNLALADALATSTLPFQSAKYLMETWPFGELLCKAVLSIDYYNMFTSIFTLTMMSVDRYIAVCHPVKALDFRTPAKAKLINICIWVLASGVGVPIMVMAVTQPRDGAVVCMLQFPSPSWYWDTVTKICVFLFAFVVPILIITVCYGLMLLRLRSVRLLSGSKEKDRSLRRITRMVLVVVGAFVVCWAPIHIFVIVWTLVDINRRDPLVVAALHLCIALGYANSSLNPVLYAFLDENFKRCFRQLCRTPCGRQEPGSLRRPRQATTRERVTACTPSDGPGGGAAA
Chain of hDOR (P41143 whole entry): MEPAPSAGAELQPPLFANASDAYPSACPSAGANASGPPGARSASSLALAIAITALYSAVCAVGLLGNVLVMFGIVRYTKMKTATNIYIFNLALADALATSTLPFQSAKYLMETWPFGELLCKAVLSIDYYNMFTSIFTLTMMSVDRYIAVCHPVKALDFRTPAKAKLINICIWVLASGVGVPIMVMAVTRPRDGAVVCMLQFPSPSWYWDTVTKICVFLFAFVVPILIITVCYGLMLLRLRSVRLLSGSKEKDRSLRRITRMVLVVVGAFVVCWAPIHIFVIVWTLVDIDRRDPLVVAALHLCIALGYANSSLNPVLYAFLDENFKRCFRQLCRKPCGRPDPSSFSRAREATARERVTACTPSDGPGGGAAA
Chain of hKOR (P41145 whole entry): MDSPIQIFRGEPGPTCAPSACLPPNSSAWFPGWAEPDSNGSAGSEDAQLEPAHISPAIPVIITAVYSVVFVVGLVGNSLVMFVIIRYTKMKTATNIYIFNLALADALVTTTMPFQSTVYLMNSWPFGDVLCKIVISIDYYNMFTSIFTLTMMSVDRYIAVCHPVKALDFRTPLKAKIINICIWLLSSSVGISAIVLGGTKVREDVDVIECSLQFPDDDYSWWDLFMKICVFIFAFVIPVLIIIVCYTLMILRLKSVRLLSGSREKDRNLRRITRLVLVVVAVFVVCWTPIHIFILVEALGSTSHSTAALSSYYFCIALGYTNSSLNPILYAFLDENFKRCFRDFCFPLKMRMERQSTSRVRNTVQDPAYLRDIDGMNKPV
T2 sequence (P34975 whole entry): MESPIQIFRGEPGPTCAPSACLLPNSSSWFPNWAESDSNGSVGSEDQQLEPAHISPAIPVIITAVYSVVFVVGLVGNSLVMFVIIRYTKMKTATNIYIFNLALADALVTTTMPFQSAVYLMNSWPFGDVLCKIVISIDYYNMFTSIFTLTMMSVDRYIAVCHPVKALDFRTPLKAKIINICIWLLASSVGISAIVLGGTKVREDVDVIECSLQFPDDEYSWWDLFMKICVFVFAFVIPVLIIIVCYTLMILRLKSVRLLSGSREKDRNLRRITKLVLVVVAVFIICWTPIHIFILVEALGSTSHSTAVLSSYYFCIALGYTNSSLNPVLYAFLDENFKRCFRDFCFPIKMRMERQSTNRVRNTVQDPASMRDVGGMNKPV

On to `CC[C@@H]1CN2CC[C@@]3(O)C(=Nc4cccc(OC)c43)[C@@H]2C[C@@H]1/C(=C\OC)C(=O)OC` [7OH, 7-Hydroxymitragynine, reference compound], for which the “ED50 (95% CI) mouse tail-flick” value with mice is recorded as 0.57 (0.19–1.7) mg/kg.

For `CC[C@@H]1CN2CC[C@@]3(O)C(=Nc4cc(Br)cc(OC)c43)[C@@H]2C[C@@H]1/C(=C\OC)C(=O)OC` [11-Br-7OH (24), 11-Br-7OH], the “Antagonist activity at the hDOR (raw signal)” value at hDOR (setting [1]) is 0.02104 and 0.01573 and 0.009966 and -0.01593 and -0.01928 and -0.02427 and 0.02048 and 0.01948 and 0.01559; on hDOR (setting [2]), 0.04515 and 0.04385 and 0.04449 and 0.03157 and 0.04067 and 0.05399 and 0.01786 and 0.03044 and 0.02432; at hDOR (setting [3]), 0.1057 and 0.11 and 0.09817 and 0.09774 and 0.0895 and 0.09531 and 0.04711 and 0.02047 and 0.02787; on hDOR (setting [4]), 0.1076 and 0.1055 and 0.1083 and 0.107 and 0.1014 and 0.09451 and 0.04651 and 0.03638 and 0.03747; at hDOR (setting [5]) it was 0.1047 and 0.1019 and 0.1172 and 0.09234 and 0.1022 and 0.1004 and 0.02352 and 0.04174 and 0.03714; on hDOR (setting [6]), 0.1014 and 0.1021 and 0.1072 and 0.1078 and 0.1042 and 0.1009 and 0.03392 and 0.02253 and 0.04348. The “Antagonist activity at the hDOR (raw signal)” value at hDOR (setting [7]) was 0.122 and 0.117 and 0.1095 and 0.09539 and 0.09115 and 0.09894 and 0.04038 and 0.02714 and 0.0351. On hDOR (setting [8]), the “antagonism at hDOR” value was “full inhibition”. Further, the “Antagonist activity at the mDOR (raw signal)” value on mDOR (setting [1]) was 0.06399 and 0.06291 and 0.07141 and -0.0292 and -0.02688 and -0.02364 and 0.0237 and 0.00593 and 0.00355; at mDOR (setting [2]), 0.1505 and 0.1501 and 0.1583 and 0.09131 and 0.07128 and 0.07775 and 0.02237 and 0.03499 and 0.03942; on mDOR (setting [3]), 0.2144 and 0.2068 and 0.2165 and 0.1245 and 0.1236 and 0.1249 and 0.06242 and 0.05459 and 0.06232; at mDOR (setting [4]), 0.2065 and 0.2182 and 0.2145 and 0.1188 and 0.1346 and 0.1274 and 0.05577 and 0.0581 and 0.03338; on mDOR (setting [5]) it was 0.2158 and 0.2138 and 0.2085 and 0.1371 and 0.1339 and 0.1253 and 0.04145 and 0.04861 and 0.04624; at mDOR (setting [6]), 0.2122 and 0.2205 and 0.2303 and 0.1255 and 0.1229 and 0.131 and 0.04756 and 0.04362 and 0.03388. The “Antagonist activity at the mDOR (raw signal)” value at mDOR (setting [7]) was 0.208 and 0.2144 and 0.211 and 0.1321 and 0.1264 and 0.1313 and 0.05075 and 0.03733 and 0.04896. Moreover, the “antagonism at mDOR” value at mDOR (setting [8]) is reported as “full inhibition”. Further, the “raw BRET response, antagonist activity at the hKOR (Supplementary Figure 10A)” value on hKOR (Log[drug] (M) -5) is 0.01109 and 0.005199 and -0.00757 and 0.006133 and 0.001515 and 0.001933 and 0.02329 and 0.01475 and 0.01349; on hKOR (Log[drug] (M) -6) it was 0.0143 and 0.01072 and 0.01916 and 0.07074 and 0.07832 and 0.07872 and 0.07001 and 0.07357 and 0.05372; at hKOR (Log[drug] (M) -7) it was 0.06437 and 0.07728 and 0.08334 and 0.1589 and 0.1581 and 0.1664 and 0.1453 and 0.1454 and 0.1482; at hKOR (Log[drug] (M) -8), 0.1403 and 0.1362 and 0.1374 and 0.1753 and 0.1713 and 0.1791; on hKOR (Log[drug] (M) -9), 0.09403 and 0.08676 and 0.08107 and 0.1704 and 0.1868 and 0.1861 and 0.1635 and 0.1852 and 0.1823; at hKOR (Log[drug] (M) -10), 0.09782 and 0.1078 and 0.1073 and 0.1956 and 0.1911 and 0.1936 and 0.176 and 0.1692 and 0.1714. In addition, on hKOR (Log[drug] (M) -11), the “raw BRET response, antagonist activity at the hKOR (Supplementary Figure 10A)” value was 0.1073 and 0.09367 and 0.109 and 0.2072 and 0.1833 and 0.1925 and 0.1707 and 0.1895 and 0.1659. In addition, the “antagonism at hKOR” value on hKOR (inhibition of reference agonist U50,488 (EC80)) is on record as “full inhibition”. Also, at rKOR, the “antagonism at rKOR” value is “full inhibition”.

On to `CC[C@@H]1CN2CC[C@@]3(O)C(=Nc4cc(F)cc(OC)c43)[C@@H]2C[C@@H]1/C(=C\OC)C(=O)OC` [11-F-7OH (22), 11-Fluoro-7-hydroxymitragynine], for which the “Antinociceptive effect, MOR KO” value in the test with WT C57 and MOR KO mice (dose 0.1) was 40.7407 and 22.4138 and -2.941 and 22.6277 and 21.0084; in the test with WT C57 and MOR KO mice (dose 0.3), 14.0741 and 33.6207 and 22.0588 and 13.1387 and 14.2857; with WT C57 and MOR KO mice (dose 1), 30.3704 and 1.724 and 19.8529 and 38.6861 and -26.8908; in the test on WT C57 and MOR KO mice (dose 3) it was 30.3704 and -6.897 and 22.0588 and 27.0073 and 1.681; in the test with WT C57 and MOR KO mice (dose 10), 100 and 18.1034 and -5.882 and 26.2774 and -0.8403. Besides, the “Antinociceptive effect, Wild Type” value in the test with WT C57 and MOR KO mice (dose 0.1) was 7.432 and 25.9259 and 5.926 and 9.722 and -11.5108 and 0 and 3.521 and -7.971; in the test with WT C57 and MOR KO mice (dose 0.3), 22.2973 and 19.2593 and 0 and 16.6667 and -0.7194 and 4.895 and -7.746 and 40.5797; in the test with WT C57 and MOR KO mice (dose 1), 71.6216 and -1.481 and 44.4444 and 10.4167 and 5.036 and 71.3287 and 100 and 14.4927; with WT C57 and MOR KO mice (dose 3), 100 (3×) and 5.185 and 43.7037 and 11.1111 and 41.0072 and -2.899; in the test on WT C57 and MOR KO mice (dose 10), 62.1622 and 30.3704 and 25.1852 and 100 (2×) and 12.2302 and 25.1748 and 47.1014.

Source of the values: PMC8219695 (Nature Communications, 2021).
